Test results published in patent publication US12257283B2 (priority 2019, dated 2025).
Read-outs that look alike come from different tables or passages of the source.

Assays:
cocaine taking = details: literature data; cited from earlier work
[1] = system: cocaine locomotor activation; details: literature data, cited from earlier work
cocaine reward = details: literature data, cited from earlier work
[2] = molecular target: chemokine receptors CCR2/CCR5; assay type: biochemical; details: inhibition of chemokine receptors CCR2/CCR5; read-out: Potency EC50
Excerpt: Table 1 illustrates the potencies of several peptides of the invention to inhibit chemokine receptors CCR2/CCR5. These receptor-active peptides (Receptides, abbreviated as RAP's) represent a novel, safe and non-addictive pharmacological intervention for substance abuse disorders by normalizing the neurobiology of addiction to suppress drug-seeking behaviors, reduce psychostimulant (cocaine, methamphetamine) activation and locomotion, and inhibit consumption of alcohol, other drugs of abuse and substance abuse in general. They may also treat depression and anxiety as those commonly occur in substance abuse. […] Decades-old treatments (methadone, buprenorphine etc.) require extended use, suffer from high recidivism, are only partly effective and are clearly inadequate. New treatments with no abuse liability, that blunt drug-seeking, dependence, and facilitate recovery and withdrawal are a priority need.

CCL2, CCL3 = system: CCL2, CCL3
Excerpt: Because opioids are used in the management of pain conditions that contribute to OUD, we determined the efficacy of a small peptide chemokine receptor antagonist RAP-103 (all-D-TTNYT, SEQ ID #1, Table 1), sometimes called RAP-103 or R103) to reverse opioid receptor analgesic tolerance and block pain as a test of its ability to block-drug seeking behaviors. Painful diabetic neuropathy (PDN) is a common complication of diabetes which adversely affects patients' daily life, often involves opioid use, which creates an addiction risk. […] To test the hypothesis, we first used behavioral and molecular/cellular approaches to explore chronic pain development and inflammatory reaction in Streptozotocin (STZ) induced diabetic rats. […] CCL2 and CCL3 are two chemokines well known in mediating immune cell trafficking and immune response in the context of neuropathic pain.
(§1) Rats were fasted overnight and received a single intraperitoneal injection of streptozotocin (60 mg/kg, Sigma-Aldrich) in citrate buffer (pH 4.5) to induce type I diabetes. The induction of diabetes was confirmed 72 h after streptozotocin injection by measurement of blood glucose levels using Contour® blood glucose diagnostic kit (Bayer HealthCare, Canada). Body weight and blood glucose levels were measured before and 3 days after streptozotocin injection, once a week for three weeks after diabetes induction. Only rats having blood glucose concentration consistently higher than 300 mg/dl were used for the present study.

[3] = system: STZ induced diabetic rats; details: oral administration
Experimental: as §1
The treatment lasted for 8 days Note, n=5 for H2O and n=7 for RAP-103/each dose.
Tactile allodynia Mechanical sensitivity was assessed using calibrated von Frey hairs (7). Animals were placed in Plexiglas boxes on an elevated metal mesh floor and allowed 60 min for habituation before testing. A series of von Frey filaments with logarithmically incrementing stiffness was applied perpendicular to the mid-plantar region of the hind paw. The 50% paw withdrawal threshold was determined using Dixon's up-down method. Withdrawal thresholds of both paws were averaged as one single value per animal. Assessment on the effects of RAP103 on mechanical and cold allodynia was performed between 2-4 hours following the drug administration. […] All data were presented as means±SEM. […]

[4] = system: cocaine induced locomotor behavior; details: rats, 0.001, 0.01, 0.03 mg/kg, p.o., 30 min before cocaine 10 mgs/Kg
Experimental: Locomotor activity (ambulation+stereotypy) induced by cocaine and the effect of RAP-103 was assessed using a Digiscan DMicro system. Following a 60-min habituation in activity chambers, rats were pretreated with RAP-103 (0.03, 0.01, 0.001 mgs/Kg) or vehicle 30 min before cocaine (10 mgs/Kg) or vehicle and activity was measured for 120 min. Differences between individual groups were determined with a Bonferroni post-hoc test. Statistical significance was set at p<0.05.

[5] = system: opioid self-administration; details: rats, MOR 0.25 mg/kg/inf
Excerpt: Rats were surgically prepared to have indwelling catheters prior to self-administration testing. To begin each session, house lights were turned on and two retractable levers extended into the chamber. […] A 20-s timeout period will follow each infusion to limit possibility of overdose. […] The dependent variable measured will be the number of infusions earned by the end of the session and defined as the breakpoint. Total cumulative responses made by the rat on the active lever during each session will also be recorded. Once rats reach criteria for stable PR responding, which is defined as 3 consecutive days of responding without upward or downward variance (<20% change from mean number of reinforcers earned for 3 consecutive days), R103 (0.02, 0.1, and 0.5 mg/kg) will be administered 15 min before daily SA sessions to assess effects on breaking point and to obtain dose-effect data for R103. A repeated-measures 2-way ANOVA (R103 treatment, sex) between-subjects design followed by a Bonferroni test was used.

MOR-dependent rats = details: 0.5 mg/kg, naloxone 3 mg/kg SC on day 7, quantified for 60 min
Experimental: Opioid tolerance during chronic exposure requires increasing opioid doses to maintain analgesic efficacy. Physical dependence also develops during chronic opioid exposure and, upon discontinuation of opioid intake, presents as a withdrawal syndrome that triggers opioid relapse. We tested the effects of RAP-103 (0.5 mg/kg) on naloxone-precipitated withdrawal signs in MOR-dependent rats. To induce physical dependence we implanted opioid (heroine) containing pellets. On day 7 rats received naloxone (3 mg/kg, SC) with or without added RAP-103 and the withdrawal signs of wet dog shakes and eye blinking were quantified for 60 min.

[6] = system: streptozotocin (STZ) induced diabetic rats
Experimental: as §1, with “study. […]” for “study.”
Tactile allodynia Mechanical sensitivity was assessed using calibrated von Frey hairs (7). Animals were placed in Plexiglas boxes on an elevated metal mesh floor and allowed 60 min for habituation before testing. A series of von Frey filaments with logarithmically incrementing stiffness was applied perpendicular to the mid-plantar region of the hind paw. The 50% paw withdrawal threshold was determined using Dixon's up-down method. Withdrawal thresholds of both paws were averaged as one single value per animal. Assessment on the effects of RAP103 on mechanical and cold allodynia was performed between 2-4 hours following the drug administration. […] All data were presented as means±SEM. Statistical analysis was performed by two-way ANOVA followed by Bonferroni post-tests. The criterion for statistical significance was P<0.05.

[7] = STZ diabetic rats, oral administration for 7 days

c1cc(CN2CCCNCCNCCCNCC2)ccc1CN1CCCNCCNCCCNCC1 [AMD3100, Plerixafor]
cocaine taking in rat self-administration assays (cocaine taking): inhibits | locomotor activation produced by an acute cocaine injection ([1]; 5, 10 mg/kg pretreatment): reduced locomotor activation | locomotor activation produced by cocaine [1]: inhibits | cocaine reward / conditioned place preference (CPP) (cocaine reward): inhibits cocaine reward | cocaine reward / conditioned place preference (CPP) (cocaine reward; listed as AMD 3100): inhibits conditioned place preference (CPP)

COc1ccc(C2(O)CCC(N3CC[C@@H](NC(=O)CNC(=O)c4cccc(C(F)(F)F)c4)C3)CC2)cn1 (some centres unmarked) [INCB 3284]
cocaine reward / conditioned place preference (CPP) (cocaine reward): prevented psychostimulant-induced CPP

Maraviroc
locomotor activation produced by cocaine [1]: reduces | cocaine reward / conditioned place preference (CPP) (cocaine reward): reduces rewarding

SSTYR [SEQ ID No.: 2]
EC50 [2]: 1 pM

STNYT [SEQ ID No.: 3]
EC50 [2]: 3 pM

TTNYT [SEQ ID No.: 1, all-D-TTNYT]
expression of chemokines and cytokines (CCL2, CCL3; [7]): inhibited expression of chemokines and cytokines | inflammation: CCL2 in the sciatic nerves (CCL2, CCL3; STZ rats, 0.5 mg/kg, for 7 days, p.o., FIG. 3A): significantly inhibited inflammation | inflammation: CCL3 in the sciatic nerves (CCL2, CCL3; STZ rats, 0.5 mg/kg, for 7 days, p.o., FIG. 3B): significantly inhibited inflammation | cold allodynia [3]: reversed cold allodynia | cocaine induced locomotor behavior (locomotor activity counts) ([4]; listed as RAP103): inhibited psychostimulant cocaine induced locomotor behavior | cocaine induced locomotor behavior (locomotor activity counts) ([4]; listed as RAP-103): blocks the locomotor inducing effects of cocaine | opioid self-administration by lever press for drug infusions [5]: significantly inhibited opioid self-administration | motivation to work for reinforcer (self-administer an opioid), progressive-ratio ([5]; R103 0.02, 0.1, and 0.5 mg/kg 15 min before sessions): significantly reduced | naloxone precipitated withdrawal signs (wet dog shakes and eye blink) (MOR-dependent rats; listed as RAP103): significantly inhibited naloxone precipitated withdrawal signs | naloxone precipitated withdrawal signs (wet dog shakes and eye blink) (MOR-dependent rats; listed as RAP-103): blocks naloxone-precipitated withdrawal signs | neuropathic pain [6, 7]: reduced neuropathic pain | mechanical allodynia ([6]; STZ induced diabetic rats, oral administration): reversed mechanical allodynia | established hypersensitivity ([6]; STZ rats, 0.5-0.02 mg/Kg b.w., daily, for 7 days): complete reversal of established hypersensitivity
